Results as given in ChEMBL document CHEMBL3886771, “Cyclopropanecarboxamido-substitute aromatic compounds as anti-tumor agents” (2016).

Target: Vascular endothelial growth factor receptor 2 (Homo sapiens, UniProt P35968)
Assay: Inhibition Assay: [Experimental method]: Use Lance@Ultra Ulight™-TK assay kit from PerKinElmer to evaluate the inhibitory activity of compounds at KDR kinase. [Instrument]: PerKinElmer's ENVISION plate reader. [Materials]: Optiplate-384 well plate (PerKinElmer), kinase buffer (50 mM Hepes pH7.5, 0.25 mM EGTA, 2 mM DTT, 0.01% Tween 20, 10 mM Mg2+, 0.5 mM Mn2+), KDR kinase (790-1356 AA, Crown Bioscience), KDR kinase substrate (PerKinElmer catalogue # TRF0127-M), Lance@Eu-W1024-anti-phosphotyrosine (PT66) (PerKinElmer, catalogue #AD0068), ATP (Invitrogen), DMSO (Sigma, catalogue #34869), purified water (Millipore, type: Milli-Q). [Study conditions]: Mix KDR (final concentration: 20 nM) and compound (final DMSO: 0.5%), pre-incubate for 20 min at 30° C.; then add ATP (final concentration: 90 μM) and the substrate (final concentration 50 μM). React for 2 hrs at 30° C. After the reaction, add antibody and reaction for 60 min at 30° C. Read the plate (615 nm, 665 nm), calculate the ratio of the value at 665 nm vs 615 nm and analyze the data.

Sequence of Vascular endothelial growth factor receptor 2 (P35968 whole entry, the tested form may be a part): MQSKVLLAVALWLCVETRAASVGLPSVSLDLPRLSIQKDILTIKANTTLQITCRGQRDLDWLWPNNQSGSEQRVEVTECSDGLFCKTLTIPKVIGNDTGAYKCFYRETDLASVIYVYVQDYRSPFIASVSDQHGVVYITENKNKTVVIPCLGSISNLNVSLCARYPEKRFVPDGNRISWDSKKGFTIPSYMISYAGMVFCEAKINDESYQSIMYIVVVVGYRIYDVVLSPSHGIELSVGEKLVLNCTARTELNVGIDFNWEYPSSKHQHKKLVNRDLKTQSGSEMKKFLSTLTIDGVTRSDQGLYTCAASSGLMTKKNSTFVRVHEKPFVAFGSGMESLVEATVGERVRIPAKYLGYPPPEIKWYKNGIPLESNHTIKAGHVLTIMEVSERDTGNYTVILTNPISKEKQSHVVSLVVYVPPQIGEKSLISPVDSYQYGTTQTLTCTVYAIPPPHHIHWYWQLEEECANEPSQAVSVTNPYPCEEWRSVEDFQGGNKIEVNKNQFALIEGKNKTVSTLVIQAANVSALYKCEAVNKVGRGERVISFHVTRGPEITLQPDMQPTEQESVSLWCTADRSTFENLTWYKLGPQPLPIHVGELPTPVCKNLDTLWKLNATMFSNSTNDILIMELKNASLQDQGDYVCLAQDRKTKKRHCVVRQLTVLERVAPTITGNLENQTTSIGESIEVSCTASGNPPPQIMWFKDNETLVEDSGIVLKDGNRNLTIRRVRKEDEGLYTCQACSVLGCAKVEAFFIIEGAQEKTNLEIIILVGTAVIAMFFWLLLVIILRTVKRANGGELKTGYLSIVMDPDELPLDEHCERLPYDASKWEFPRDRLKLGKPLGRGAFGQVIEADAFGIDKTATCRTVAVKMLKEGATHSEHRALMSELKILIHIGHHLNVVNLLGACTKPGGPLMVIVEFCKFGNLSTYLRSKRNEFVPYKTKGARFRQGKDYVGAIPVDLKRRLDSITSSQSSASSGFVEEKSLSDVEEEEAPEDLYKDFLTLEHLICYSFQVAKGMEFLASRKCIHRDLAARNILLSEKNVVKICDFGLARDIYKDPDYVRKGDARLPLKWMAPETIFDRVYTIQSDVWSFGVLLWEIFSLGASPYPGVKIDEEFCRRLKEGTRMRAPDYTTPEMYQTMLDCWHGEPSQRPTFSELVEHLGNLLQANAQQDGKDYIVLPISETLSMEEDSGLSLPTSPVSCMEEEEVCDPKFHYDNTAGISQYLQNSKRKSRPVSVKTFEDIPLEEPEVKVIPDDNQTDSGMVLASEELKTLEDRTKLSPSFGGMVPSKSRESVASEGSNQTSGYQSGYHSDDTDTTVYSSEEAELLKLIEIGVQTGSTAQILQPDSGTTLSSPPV

| IC50 [nM] | Compound |
| --- | --- |
| 11.5 | O=C(Nc1ccc(Oc2ccnc(NC(=O)C3CC3)c2)c(F)c1)Nc1ccc(Cl)c(C(F)(F)F)c1 |
| 26.6 | CC(c1cc(NC(=O)Nc2ccc(Oc3ccnc(NC(=O)C4CC4)c3)c(F)c2)cc(C(F)(F)F)c1)N1CCNCC1 (configuration not stated) |
